# Experimental data: patent US20210078917A1, “FUNGICIDAL FERTILIZER COMPOSITION COMPRISING POTASSIUM PHOSPHITE AND GAMMA-POLY-GLUTAMIC ACID” (JIANGSU HUIFENG BIO AGRICULTURE CO., LTD., priority 2018, published 2021)
# Assays:
# pepper = assay: Yield increase and quality test of pepper; assay type: in vivo; settings: 40 g active ingredient per mu
# Description: This fertilizer was applied on the basis of conventional fertilization in each treatment area. Fertilization method: The fertilizer was applied by spraying during the seedling stage of pepper. The yield, quality and control effect on disease on pepper were determined.
# Chinese wolfberry = assay: Yield increase and quality test of Chinese wolfberry; assay type: in vivo, Chinese wolfberry "Ningqi No. 7"
# Description: The test was carried out in a Chinese wolfberry planting test plot in Koluke Town, Delingha City, Qinghai Province. Chinese wolfberry plants were all three-year-old seedlings of variety “Ningqi No. 7” at a density of 270 plants/667 m^2. This experiment was designed such that different plots were arranged in order. […]. Fertilization method: It was applied together with other base fertilizers, by laying the fertilizer at the bottom of the planting pit, where the depth of the trench was 70 cm, the diameter of the pit was 80 cm, and the soil was mixed in and applied at the bottom when applying fertilizer. The yield, quality and control effect on disease on fresh Chinese wolfberry fruit were determined.
substance,measurement,setting,value
γ-poly-glutamic acid,Quality: Vitamin C,pepper,26.8 mg/100 g
same,Yield: Total yield,pepper,3382 kg/mu
same,Yield: Weight of single fruit,pepper,49.2 g
same,Quality: Polysaccharide,Chinese wolfberry; 50 g/mu,8.79%
same,Quality: Total amino acid content,Chinese wolfberry; 50 g/mu,7.53%
same,Yield of fresh Chinese wolfberry fruit: Weight per 100 fruits,Chinese wolfberry; 50 g/mu,117.5 g
same,Yield of fresh Chinese wolfberry fruit: Yield,Chinese wolfberry; 50 g/mu,2524.5 kg/mu
same,Quality: Polysaccharide,Chinese wolfberry; 100 g/mu,9.54%
same,Quality: Total amino acid content,Chinese wolfberry; 100 g/mu,7.68%
same,Yield of fresh Chinese wolfberry fruit: Weight per 100 fruits,Chinese wolfberry; 100 g/mu,124.7 g
same,Yield of fresh Chinese wolfberry fruit: Yield,Chinese wolfberry; 100 g/mu,2658.6 kg/mu
